Measurements from publication PMC12087653 (Autophagy, 2025).

Assays:
LGG-1 = LGG-1 (Caenorhabditis elegans, UniProt Q09490); settings: cited from earlier work
GABARAP = settings: full-length HsEPG5; cited from earlier work
HeLa cells = settings: Rab7 colocalization; cited from earlier work
[1] = system: STX17-SNAP29-VAMP8 complex; settings: in vitro fusion assay; cited from earlier work
LC3/GABARAP proteins = settings: cited from earlier work
His-LGG-1 = His-LGG-1 (C. elegans, UniProt Q09490 1-116); assay: ITC
Chain of His-LGG-1 (Q09490 1-116): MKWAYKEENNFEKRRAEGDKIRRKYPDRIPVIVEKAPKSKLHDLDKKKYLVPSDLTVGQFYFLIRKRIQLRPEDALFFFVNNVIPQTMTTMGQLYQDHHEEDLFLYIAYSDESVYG

Chain of LGG-1 (Q09490 whole entry): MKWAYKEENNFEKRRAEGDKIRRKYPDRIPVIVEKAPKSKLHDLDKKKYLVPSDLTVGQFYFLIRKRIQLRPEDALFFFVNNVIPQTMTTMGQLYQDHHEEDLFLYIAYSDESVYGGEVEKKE

Which “binding to LGG-1” value (LGG-1) does the source give for CeEPG5: C. elegans EPG-5, recombinant here?
The value was “binds the C. elegans Atg8 protein LGG-1 via its tandem LIR”.

Which “Atg8 subfamily preference of HsEPG5” value (GABARAP) does the source give for “HsEPG5: human EPG5 (ectopic P-granules 5 autophagy tethering factor; ~290 kDa)” here?
The value was “preferentially binds members of the GABARAP subfamily”.

And the “formation of puncta / localization in cells” value (HeLa cells)?
The value was “could form small puncta that colocalize with lysosomal surface-residing Rab7 in HeLa cells”.

And the “effect on STX17-SNAP29-VAMP8 complex formation” value [1]?
Its value is “modestly enhances the formation of the STX17-SNAP29-VAMP8 complex”.

And the “dependence of peri-nuclear localization on LC3/GABARAP proteins” value (LC3/GABARAP proteins)?
The value was “HsEPG5 localization to the peri-nuclear region is independent of LC3/GABARAP proteins”.

B1: CeEPG5 LIR1 peptide (505STWEILADDDD515) (peptide)
peptide: STWEILADDDD
Which Kd (His-LGG-1) does the source give for B1 here?
Its Kd is 1.46 µM.

B2: CeEPG5 LIR2 peptide (516GEANEFSFVTINE528) (peptide)
peptide: GEANEFSFVTINE
For B2, which Kd (His-LGG-1) is on record?
The Kd was 10.4 µM.
